Assay results published in PMC8792282 (Redox Biology, 2022).
Read-outs that look alike come from different tables or passages of the source.

Columns and labels:
[1] = biological target: T1, Protein disulfide isomerase (PDI) (Homo sapiens, UniProt P07237); assay: insulin reduction assay; type: biochemical
[2] = biological target: T1, Protein disulfide isomerase (PDI); assay: insulin reduction assay; type: biochemical; remark: listed apart in the source

T1 sequence (P07237 18-508): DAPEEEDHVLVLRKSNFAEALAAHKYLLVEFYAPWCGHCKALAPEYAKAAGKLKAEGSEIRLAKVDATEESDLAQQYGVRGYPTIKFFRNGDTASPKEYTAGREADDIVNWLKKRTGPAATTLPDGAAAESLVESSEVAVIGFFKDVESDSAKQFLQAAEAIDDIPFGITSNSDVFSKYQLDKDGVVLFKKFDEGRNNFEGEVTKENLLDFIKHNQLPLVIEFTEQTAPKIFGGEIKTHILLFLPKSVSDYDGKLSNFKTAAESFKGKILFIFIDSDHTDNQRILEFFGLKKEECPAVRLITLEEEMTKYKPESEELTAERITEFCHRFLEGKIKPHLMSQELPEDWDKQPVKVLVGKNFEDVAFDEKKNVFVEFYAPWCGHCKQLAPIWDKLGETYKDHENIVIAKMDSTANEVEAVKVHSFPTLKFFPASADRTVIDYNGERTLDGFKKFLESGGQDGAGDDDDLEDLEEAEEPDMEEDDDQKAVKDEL

IC50 [1] [nM] | IC50 [2] [nM] | Molecule
4500 |  | C[C@@H]1O[C@@H](OC[C@H]2O[C@@H](Oc3c(-c4ccc(O)c(O)c4)oc4cc(O)cc(O)c4c3=O)[C@H](O)[C@@H](O)[C@@H]2O)[C@H](O)[C@H](O)[C@H]1O [rutin]
 | 700 | bepristat 2a
